Assay results: patent US11667621B2, “Antiestrogen compounds” (STEVENS INSTITUTE OF TECHNOLOGY, priority 2018, dated 2023)
Substitutions are numbered along the chain they refer to.

What was measured:
Test in all cases: Luciferase assay, overexpressed ER (3×-ERE-TATA-Luciferase reporter)
Assay type in all cases: cell-based
HA-ERα wild type = target: T1, HA-ERα wild type (Homo sapiens, UniProt P03372); conditions: compound concentration 1 μM, 24 hours; read-out: Overexpressed ER (% Inhibition) WT
T1 construct: HA; expressed in transfected cells
T1 sequence (P03372 1-595): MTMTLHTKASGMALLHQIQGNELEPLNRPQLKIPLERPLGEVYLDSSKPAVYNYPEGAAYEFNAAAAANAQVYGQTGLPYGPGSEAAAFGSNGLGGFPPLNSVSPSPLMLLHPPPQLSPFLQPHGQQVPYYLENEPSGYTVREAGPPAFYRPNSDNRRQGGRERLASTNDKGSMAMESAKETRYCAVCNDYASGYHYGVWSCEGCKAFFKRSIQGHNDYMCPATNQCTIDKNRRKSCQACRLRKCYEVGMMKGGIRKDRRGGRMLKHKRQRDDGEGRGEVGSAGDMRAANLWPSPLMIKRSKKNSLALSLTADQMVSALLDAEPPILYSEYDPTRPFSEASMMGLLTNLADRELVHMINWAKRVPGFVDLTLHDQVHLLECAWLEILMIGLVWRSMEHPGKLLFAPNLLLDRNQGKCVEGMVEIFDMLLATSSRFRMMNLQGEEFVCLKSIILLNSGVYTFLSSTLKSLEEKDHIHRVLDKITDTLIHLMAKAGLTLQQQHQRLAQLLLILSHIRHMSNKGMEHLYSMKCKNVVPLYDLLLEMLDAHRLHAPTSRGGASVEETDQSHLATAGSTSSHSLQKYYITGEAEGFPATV
Description: (§1) Luciferase assays were performed to determine the efficacy of the example compounds at inhibiting ER or its mutants' ability to activate transcription of genes.
(§2) Cells were plated at a density of 0.15×10^6 per well of 24 well plates one day prior to transfection. Cells were transfected with 125 ng (per well) of HA-ERα wild type or mutants, 315 ng (per well) of 3×-ERE-TATA-Luciferase reporter and 50 ng (per well) of pRL-TK Renilla Luciferase plasmid, using Xtremegene (Roche). The cells were treated with the various compounds or Fulvestrant at the indicated doses a day after transfection for 24 hours and luciferase activities were determined using the Dual-Luciferase® Reporter Assay System (Promega) according to manufacturer's instructions. Luciferase bioluminescence measurements were performed with the Veritas™ Microplate Luminometer (Promega). All experiments were conducted in triplicate and the Firefly luciferase activity was normalized with the Renilla luciferase activity of each sample.

HA-ERα D538G = target: T2, HA-ERα D538G (Homo sapiens, UniProt P03372, D538G); conditions: compound concentration 1 μM, 24 hours
T2 construct: HA; expressed in transfected cells
T2 sequence (P03372 1-595 D538G): T1 sequence (P03372 1-595) with D538G
Description: as §1, §2

HA-ERα Y537S = target: T3, HA-ERα Y537S (Homo sapiens, UniProt P03372, Y537S); conditions: compound concentration 1 μM, 24 hours
T3 construct: HA; expressed in transfected cells
T3 sequence (P03372 1-595 Y537S): T1 sequence (P03372 1-595) with Y537S
Description: as §1, §2

HA-ERα L536R = target: T4, HA-ERα L536R (Homo sapiens, UniProt P03372, L536R); conditions: compound concentration 1 μM, 24 hours
T4 construct: HA; expressed in transfected cells
T4 sequence (P03372 1-595 L536R): T1 sequence (P03372 1-595) with L536R
Description: as §1, §2

Structure (SMILES) | inhibition at 1 µM (HA-ERα wild type) | inhibition at 1 µM (HA-ERα D538G) | inhibition at 1 µM (HA-ERα Y537S) | inhibition at 1 µM (HA-ERα L536R)
O=C(NCCCCOc1ccc(C(=C2C3CC4CC(C3)CC2C4)c2ccc(O)cc2)cc1)C1CC1(F)F (stereo not drawn) [Example 32, N-(4-(4-(Adamantan-2-ylidene(4-hydroxyphenyl)methyl)phenoxy)butyl)-2,2-difluorocyclopropanecarboxamide] | 48% | – | – | –
O=C(COc1cccc2c1C(=O)N(C1CCC(=O)NC1=O)C2=O)NCCCCCCOc1ccc(C(=C2C3CC4CC(C3)CC2C4)c2ccc(O)cc2)cc1 (stereo not drawn) [Example 16, N-(6-(4-(Adamantan-2-ylidene(4-hydroxyphenyl)methyl)phenoxy)hexyl)-2-((2-(2,6-dioxopiperidin-3-yl)-1,3-dioxoisoindolin-4-yl)oxy)acetamide] | 81% | 61% | -65% | 64%
O=C(CCC1CCCCC1)NCCCCOc1ccc(Oc2c(-c3ccc(O)cc3)sc3cc(O)ccc23)cc1 [Example 30, 3-Cyclohexyl-N-(4-(4-((6-hydroxy-2-(4-hydroxyphenyl)benzo[b]thiophen-3-yl)oxy)phenoxy)butyl)propanamide] | 61% | – | – | –
O=C(NCCCCOc1ccc(C(=C2CCCCC2)c2ccc(O)cc2)cc1)C1CCCCC1 [Example 23, N-(4-(4-(Cyclohexylidene(4-hydroxyphenyl)methyl)phenoxy)butyl)-cyclohexanecarboxamide] | -25% | 0% | -169% | 43%
O=C(COc1cccc2c1C(=O)N(C1CCC(=O)NC1=O)C2=O)NCCCCOc1ccc(C(=C2C3CC4CC(C3)CC2C4)c2ccc(O)cc2)cc1 (stereo not drawn) [Example 15, N-(4-(4-(Adamantan-2-ylidene(4-hydroxyphenyl)methyl)phenoxy)butyl)-2-((2-(2,6-dioxopiperidin-3-yl)-1,3-dioxoisoindolin-4-yl)oxy)acetamide] | 85% | 93% | -51% | 82%
O=C1CCC(N2C(=O)c3cccc(OCCOCCOCCOc4ccc(C(=C5C6CC7CC(C6)CC5C7)c5ccc(O)cc5)cc4)c3C2=O)C(=O)N1 (stereo not drawn) [Example 18, 4-(2-(2-(2-(4-(Adamantan-2-ylidene(4-hydroxyphenyl)methyl)phenoxy)-ethoxy)ethoxy)ethoxy)-2-(2,6-dioxopiperidin-3-yl)isoindoline-1,3-dione] | 80% | 86% | -75% | 84%
O=C(NCCCCOc1ccc(C(=C2CCCCC2)c2ccc(O)cc2)cc1)C1CCC1 [Example 24, N-(4-(4-(Cyclohexylidene(4-hydroxyphenyl)methyl)phenoxy)-butyl)cyclobutanecarboxamide] | -83% | -7% | -160% | -75%
O=C(NCCCCOc1ccc(Oc2c(-c3ccc(O)cc3)sc3cc(O)ccc23)cc1)C1CCC1 [Example 28, N-(4-(4-((6-Hydroxy-2-(4-hydroxyphenyl)benzo[b]thiophen-3-yl)oxy)phenoxy)butyl)cyclobutanecarboxamide] | 13% | 60% | -64% | 43%
O=C(NCCCCOc1ccc(C2c3ccc(O)cc3CCC2c2ccccc2)cc1)[C@H]1CC[C@H](C(F)(F)F)CC1 (stereo partly drawn) [Example 22, (trans)-N-(4-(4-(6-Hydroxy-2-phenyl-1,2,3,4-tetrahydronaphthalen-1-yl)phenoxy)butyl)-4-(trifluoromethyl)cyclohexanecarboxamide] | -130% | – | – | –
O=C(NCCCCOc1ccc(C(=C2CCCCC2)c2ccc(O)cc2)cc1)C12CC3CC(CC(C3)C1)C2 [Example 26, N-(4-(4-(Cyclohexylidene(4-hydroxyphenyl)methyl)phenoxy)-butyl)adamantane-1-carboxamide] | 52% | 65% | -32% | 69%
Cc1c(-c2ccc(O)cc2)n(Cc2ccc(OCCCCNC(=O)[C@H]3CC[C@H](C(F)(F)F)CC3)cc2)c2ccc(O)cc12 [Example 20, (trans)-N-(4-(4-((5-Hydroxy-2-(4-hydroxyphenyl)-3-methyl-1H-indol-1-yl)methyl)phenoxy)butyl)-4-(trifluoromethyl)cyclohexanecarboxamide] | 83% | – | – | –
O=C(NCCCCOc1ccc(C(=C2C3CC4CC(C3)CC2C4)c2ccc(O)cc2)cc1)c1ccc(C(F)(F)F)cc1 [Example 33, N-(4-(4-(Adamantan-2-ylidene(4-hydroxyphenyl)methyl)phenoxy)butyl)-4-(trifluoromethyl)benzamide] | 79% | – | – | –
O=C(CCC1CCCCC1)NCCCCOc1ccc(C(=C2C3CC4CC(C3)CC2C4)c2ccc(O)cc2)cc1 [Example 34, N-(4-(4-(Adamantan-2-ylidene(4-hydroxyphenyl)methyl)phenoxy)butyl)-3-cyclohexylpropanamide] | 65% | – | – | –
O=C(NCCCCOc1ccc(C(=C2C3CC4CC(C3)CC2C4)c2ccc(O)cc2)cc1)C1CC1 [Example 31, N-(4-(4-(Adamantan-2-ylidene(4-hydroxyphenyl)methyl)phenoxy)butyl)cyclopropanecarboxamide] | 36% | – | – | –
Cc1c(-c2ccc(O)cc2)n(Cc2ccc(OCCCCNC(=O)C34CC5CC(CC(C5)C3)C4)cc2)c2ccc(O)cc12 [Example 21, N-(4-(4-((5-Hydroxy-2-(4-hydroxyphenyl)-3-methyl-1H-indol-1-yl)methyl)phenoxy)butyl)adamantane-1-carboxamide] | 82% | – | – | –
